This passage reports cytotoxicity results from ChEMBL document CHEMBL3507680, “University of Dundee, Gates Library screen for HepG2 cell viability”.

This series can be described thus: Human HepG2 cell viability assay in 384 well format. It is filed as toxicity, cell-based. The arrangement: dose 125 nL, time 70.5 hour; cytotoxicity at 70.5 h: concentration not given beside the values. The conditions noted are these: HepG2 cells, read-out: Inhibition.

Regarding `O=C(C1CCCO1)N1CCCn2c(nnc2Cn2cccn2)C1` (stereo not drawn), the cytotoxicity at 70.5 h is -10.9%. With `CCC(=O)N1CCc2nc(N3CCOCC3)nc(N(C)C)c2CC1`, the cytotoxicity at 70.5 h came to 35.1%. Next, `CCCS(=O)(=O)N1CCC2(CC1)COCCN(C(C)=O)C2`: -4.27%; `O=C(Nc1cnccn1)[C@@H]1C[C@H]2OCC[C@H]2N(c2ncc(F)cn2)C1`: 18%. For `CCn1cc2c(n1)C(COCC1CC1)CN(C(=O)c1ccsc1)C2` (stereo not drawn), the cytotoxicity at 70.5 h was -10.1%.

Turning to `CCCS(=O)(=O)N1CCOC2(COCCN(C(C)=O)C2)C1` (stereo not drawn), the cytotoxicity at 70.5 h was -8.79%. Next, `CN(C)C(=O)Cn1c2c(ccc1=O)CC(NCc1cccnc1)CC2` (stereo not drawn): -10.4%; `O=C(C1CCCO1)N1CCCn2c(nnc2Cn2cccc2)C1` (stereo not drawn): -11.4%; `c1cc(-c2ccc3c(c2)C2(CCNCC2)CC3)ccn1`: 50.6%. Consider `O=C([C@H]1COC[C@H]2CN(CC3CC3)C[C@H]21)N1CCOCC1`, for which the cytotoxicity at 70.5 h is -2.68%. For `Cn1c(C(=O)N2CCOCC2)nc2c1CCN(c1ncccn1)C2`, the cytotoxicity at 70.5 h was -1.44%. For the molecule `CCOCC1COCCC12CCN(C(=O)C1=CCCCC1)CC2` (stereo not drawn), the cytotoxicity at 70.5 h is -4.56%.

As for `COc1cccc(CC(=O)N2CCc3ncnc(C)c3CC2)c1`, the cytotoxicity at 70.5 h is -5.98%. As for `O=S1(=O)NCC2(CCN(c3ncc(F)cn3)CC2)COc2ccccc21`, the cytotoxicity at 70.5 h is -0.496%. For `CC1N(C)C(=O)COC12CCN(C(=O)CCc1ccccc1)CC2` (stereo not drawn), the cytotoxicity at 70.5 h turned out to be 5.92%. With `O=C(Cc1cccc(F)c1)N1CCc2ncnc(N3CCCC3)c2CC1`, the cytotoxicity at 70.5 h is -1.93%. As for `CC(C)n1cnc2c1C(C(=O)N1CCCC1)N(S(C)(=O)=O)CC2` (stereo not drawn), the figure is -0.195%; as for `Cc1ccc(CNC(=O)C2c3c(ncn3C(C)C)CCN2S(C)(=O)=O)o1` (stereo not drawn), -0.242%. For the molecule `CN1CCCN(C(=O)c2nc3c(n2C)CCN(c2ncccn2)C3)CC1`, the cytotoxicity at 70.5 h came out at 22.6%. Take `CCOCC1C[C@@H]2OCCN(C(=O)c3ccc[nH]3)[C@H]2C1` (stereo partly drawn): the cytotoxicity at 70.5 h was -6.8%.

With `O=C(NCC1CC1)[C@H]1C[C@@H]2CN(C(=O)NCC3CCCCC3)C[C@H]1O2`, the cytotoxicity at 70.5 h was determined as 30.6%. As to `O=C(c1ccc[nH]1)N1CCO[C@H]2CC(COCc3ccccn3)C[C@@H]21` (stereo partly drawn), the cytotoxicity at 70.5 h stood at 2.76%.

On to `CCN(C)C(=O)c1cc(-c2cn(C(C)C)cn2)n2ccccc12`, for which the cytotoxicity at 70.5 h is 26.7%.

For the molecule `CCc1cnc(N2CCC3(CC2)CCN(c2cnn(C)c2)C3=O)nc1`, the cytotoxicity at 70.5 h is 31.2%. For `CN1C(=O)CC2(CCN(S(=O)(=O)N(C)C)CC2)c2ccccc21`, the cytotoxicity at 70.5 h came to 33.2%. In the case of `CN1C(=O)CC2(CCNCC2)c2ccccc21`, the cytotoxicity at 70.5 h turned out to be 6.26%. On to `CN1C(=O)CC2(CCN(S(=O)(=O)c3cccs3)CC2)c2ccccc21`, for which the cytotoxicity at 70.5 h amounted to 8.66%. With `CN1CCN(CC2CC2)C(=O)C12CCN(c1nccs1)CC2`, the cytotoxicity at 70.5 h was determined as 7.83%. As to `O=C(NC1CC1)c1nc2c(o1)CN(c1ncccn1)C2`, the cytotoxicity at 70.5 h stood at 1.1%. As for `O=C(N1CCCC1)C12CC(CN1Cc1nccs1)C2`, the cytotoxicity at 70.5 h was -9.99%. `CN(C)CCN1CCN(C)C2(CCN(c3nccs3)CC2)C1=O`: the cytotoxicity at 70.5 h was -3.76%. Regarding `O=C(NCC1CC1)C12CC(CN1Cc1nccs1)C2`, the cytotoxicity at 70.5 h was -9.03%. As for `O=C(c1cnccn1)N1C[C@@H](c2ccccc2)[C@@]2(CCNC2=O)C1`, the figure is -4.45%; as for `Cc1ccc(CN2CC[C@@H](N(C)C(C)C)[C@@H]2Cc2ccccc2)o1`, 2.54%. `Cc1nc(COCC2CNCc3nccn3C2)cs1` (stereo not drawn): the cytotoxicity at 70.5 h was found to be 7.13%. Next, `CC(=O)N1CC[C@@H]2CN(Cc3cccc(Cl)c3)S(=O)(=O)[C@@H]2CC1`: -1.91%. As to `CCS(=O)(=O)N1CCOC2(CCCN(c3cccc(C#N)c3)C2)C1` (stereo not drawn), the cytotoxicity at 70.5 h is -5.28%. For `Cn1cc(C(=O)N[C@H]2CN(S(C)(=O)=O)[C@@H]3CCCO[C@H]23)cn1`, the cytotoxicity at 70.5 h was -9.45%. Consider `CCOCC1CN(C(=O)c2ccco2)Cc2nn(C)cc21` (stereo not drawn), for which the cytotoxicity at 70.5 h is -9.75%. With `CCOCC1CN(C(=O)c2ccsc2)Cc2nn(C)cc21` (stereo not drawn), the cytotoxicity at 70.5 h was -8.31%. As for `O=C(C1=CCCC1)N1C[C@H](OCc2cccnc2)[C@H]2OCCC[C@H]21`, the figure is -9.34%; as for `O=C(NCc1cccnc1)C1=NOC2(CCCN(CCO)C2)C1` (stereo not drawn), -10.7%; as for `COCCNC(=O)[C@H]1CC[C@@H]2[C@@H](CCN2S(C)(=O)=O)O1`, 11.5%.

As to `COCCN1C(=O)CO[C@@H]2CN(S(=O)(=O)c3ccccc3)C[C@H]21`, the cytotoxicity at 70.5 h was 5.06%. As to `CCCS(=O)(=O)N1CCc2onc(CNc3ncccn3)c2C1`, the cytotoxicity at 70.5 h was 6.05%. `CCN1CCc2onc(CNc3ncccn3)c2C1`: the cytotoxicity at 70.5 h amounted to 8.16%. As for `CCOCc1ncn2c1CN(S(=O)(=O)c1cccc(C)c1)CC2`, the cytotoxicity at 70.5 h is -1.4%.

Turning to `Cc1nc(C)c2c(n1)CCN(Cc1ccco1)CC2`, the cytotoxicity at 70.5 h was 2.27%. Next, `O=C([C@H]1CCCO1)N1CCC2(CC1)CNCc1ccccc12`: 8.83%; `O=C([C@@H]1CSCN1)N1CCC2(CC1)CNCc1ccccc12`: 3.6%; `c1ccc(-c2cnc3n2CCNC32CCNCC2)cc1`: 43.5%. For the molecule `Cc1nc2c(c(NC(C)C)n1)CCN(C1CCOCC1)CC2`, the cytotoxicity at 70.5 h turned out to be 2.46%. In the case of `CN(C)C(=O)Cn1c2c(ccc1=O)CC(NCc1ccoc1)CC2` (stereo not drawn), the cytotoxicity at 70.5 h came out at 1.44%. As for `CN(C)CCNC(=O)[C@H]1C[C@@H]2CN(C(=O)NC3CCCC3)C[C@H]1O2`, the cytotoxicity at 70.5 h was 5.4%. With `CN(C)Cc1cnc2n1CCN(C(=O)Cc1ccsc1)CC2`, the cytotoxicity at 70.5 h was 8.26%. On to `CC1N(C)C(=O)COC12CCN(Cc1ccsc1)CC2` (stereo not drawn), for which the cytotoxicity at 70.5 h was determined as 4.85%. For the molecule `COCCN1CCOCC12CCN(c1ccc(C#N)cc1)CC2`, the cytotoxicity at 70.5 h was -0.11%. On to `O=S1(=O)NCC2(CCNCC2)COc2ccccc21`, for which the cytotoxicity at 70.5 h was -2.63%.

In the case of `CN(C)Cc1cnc2n1CCN(C(=O)NCc1ccccc1)CC2`, the cytotoxicity at 70.5 h stood at 4.32%.

With `CN(C)Cc1cnc2n1CCN(C(=O)Cc1cccc(F)c1)CC2`, the cytotoxicity at 70.5 h is 4.88%. Turning to `Cc1nc(CN2CCOCC23CCN(c2ccc(C#N)cc2)CC3)cs1`, the cytotoxicity at 70.5 h is -2.38%.

For `CN1CCOCC12CCN(c1ccc(C#N)cc1)CC2`, the cytotoxicity at 70.5 h is -5.69%. As to `CCN1CCOCC12CCN(c1ccc(C#N)cc1)CC2`, the cytotoxicity at 70.5 h is -6.86%. Regarding `Cc1ccc(OCC(=O)N2C[C@@H]3CN(C)CCO[C@@H]3C2)cc1`, the cytotoxicity at 70.5 h is -7.41%. Consider `COCCN1CCN(c2ccc(C)nn2)Cc2cccnc21`, for which the cytotoxicity at 70.5 h is -7.28%. For `O=C(NC1CC2(CCN(CCO)CC2)c2ccccc21)c1ccsc1` (stereo not drawn), the cytotoxicity at 70.5 h amounted to 8.71%. Regarding `Cc1ccc(N2CCN(C)c3ncccc3C2)nn1`, the cytotoxicity at 70.5 h is -2.98%. Consider `COCC1CN(C(=O)COc2ccccc2C)Cc2ncn(C)c21` (stereo not drawn), for which the cytotoxicity at 70.5 h is -4.45%.

With `COCC1CN(S(=O)(=O)Cc2ccc(C)cc2)Cc2c1cnn2C` (stereo not drawn), the cytotoxicity at 70.5 h is -6.77%. Next, `O=C(NCCN1CCOCC1)c1ccnn1-c1ccc2ccccn12`: 3.81%. For `CC(C)n1cnc2c1C(C(=O)N(C)C)N(Cc1ccccc1)CC2` (stereo not drawn), the cytotoxicity at 70.5 h was -3.01%. With `Cc1occc1C(=O)N1C[C@H]2CCCC(OCc3cccnc3)[C@H]2C1` (stereo partly drawn), the cytotoxicity at 70.5 h was -4.67%. On to `Cc1occc1C(=O)N1CCO[C@H]2[C@H](OCc3cccnc3)CC[C@@H]21`, for which the cytotoxicity at 70.5 h was -8.78%. Take `Cc1ccc(CN2CC[C@H]3O[C@@H](C(=O)N4CCCO4)CC[C@H]32)s1`: the cytotoxicity at 70.5 h was -4%.

As to `O=C(NCc1cccnc1)C1=NOC2(CCN(C(=O)N3CCCC3)C2)C1` (stereo not drawn), the cytotoxicity at 70.5 h was -9.94%.

As for `CCS(=O)(=O)N1CCOC2(CCCN(c3cnccn3)C2)C1` (stereo not drawn), the cytotoxicity at 70.5 h is -6.84%. Consider `O=C(c1cnccn1)N1CCO[C@H]2[C@H](OCc3cccnc3)CC[C@@H]21`, for which the cytotoxicity at 70.5 h is -6.93%. With `Cn1ccnc1C(=O)N[C@@H]1CN(Cc2cccs2)[C@@H]2CCCO[C@@H]21`, the cytotoxicity at 70.5 h is -14.1%. As for `COCCN1CCN(C(=O)NC2CC2)Cc2ccc(C)nc21`, the cytotoxicity at 70.5 h is -12.1%. In the case of `Cc1noc(C)c1CN1CC[C@H]2OCC[C@@H](C(=O)NCC3CC3)[C@H]2C1`, the cytotoxicity at 70.5 h is -8.02%.

For the molecule `O=C([C@H]1CC[C@@H]2[C@@H](CCN2Cc2nccs2)O1)N1CCCCO1`, the cytotoxicity at 70.5 h is -5.06%. For the molecule `Cn1cc(C(=O)N[C@@H]2CN(CC3CCOCC3)[C@@H]3CCCO[C@@H]32)cn1`, the cytotoxicity at 70.5 h is -7.22%.

Turning to `OCCN1CC2(CCN(CC3CC3)CC2)c2ccccc21`, the cytotoxicity at 70.5 h stood at 4.7%. With `Cc1ccc(CN2C[C@@H]3CN(CC4CCOCC4)CCO[C@@H]3C2)s1`, the cytotoxicity at 70.5 h is 8.99%.

`CCc1cnc(N2C[C@H](OCc3csc(C)n3)[C@H]3COC[C@H]32)nc1`: the cytotoxicity at 70.5 h came to 2.07%.

For the molecule `CCN(C)c1ncc2c(c1C(=O)O)CCN(C1CCOC1)C2` (stereo not drawn), the cytotoxicity at 70.5 h was 0.989%. Take `Cn1cc(CN2C[C@@H](NC(=O)c3cscn3)[C@H]3OCCC[C@H]32)cn1`: the cytotoxicity at 70.5 h was -8.57%. Take `c1cnc(N2CCCC3(CN(CC4CCOCC4)CCO3)C2)cn1` (stereo not drawn): the cytotoxicity at 70.5 h is -3.73%.

`Cn1cc(C(=O)N[C@@H]2CN(Cc3cccnc3)[C@@H]3CCCO[C@@H]32)cn1`: the cytotoxicity at 70.5 h is -4.29%. For `Cn1cc(CN2CC[C@H]3O[C@@H](C(=O)NC4CC4)CC[C@H]32)cn1`, the cytotoxicity at 70.5 h is -1.4%.

Regarding `CN(Cc1ccco1)C[C@H]1OC[C@@H]2CCN(Cc3ccsc3)C[C@@H]21`, the cytotoxicity at 70.5 h is -7.38%. As to `Cc1cccc(CO[C@@H]2C[C@H]3CN(c4ncccn4)CCN3C2)n1`, the cytotoxicity at 70.5 h was -1.58%. Regarding `CN(Cc1ccco1)C[C@H]1OC[C@@H]2CCN(Cc3ccncc3)C[C@@H]21`, the cytotoxicity at 70.5 h was determined as 15.7%.
